Data as given in BindingDB's records for doi:10.1016/j.bmcl.2005.03.034 (Glaxosmithkline, 2005).

What follows are molecules tested against Vascular endothelial growth factor receptor 2 (Homo sapiens, UniProt P35968) (assay: Homogeneous Time-resolved Fluorescence (HTRF) Assay).
Excerpt: The assay was using baculovirus-expressed recombinant protein kinase purified as the intracellular domain fused by GST tag, interacting with biotinylated peptide substrate. HTRF is based on the proximity of europium cryptate (donor fluorophore)-labeled antiphosphotyrosine and streptavidin labeled with APC(allophycocyanin), which have been brought together by a binding reaction. When the two entities come into close proximity and upon excitation, energy transfer occurs and APC re-emits at 665 nm.

Chain of Vascular endothelial growth factor receptor 2 (P35968 whole entry, the tested form may be a part): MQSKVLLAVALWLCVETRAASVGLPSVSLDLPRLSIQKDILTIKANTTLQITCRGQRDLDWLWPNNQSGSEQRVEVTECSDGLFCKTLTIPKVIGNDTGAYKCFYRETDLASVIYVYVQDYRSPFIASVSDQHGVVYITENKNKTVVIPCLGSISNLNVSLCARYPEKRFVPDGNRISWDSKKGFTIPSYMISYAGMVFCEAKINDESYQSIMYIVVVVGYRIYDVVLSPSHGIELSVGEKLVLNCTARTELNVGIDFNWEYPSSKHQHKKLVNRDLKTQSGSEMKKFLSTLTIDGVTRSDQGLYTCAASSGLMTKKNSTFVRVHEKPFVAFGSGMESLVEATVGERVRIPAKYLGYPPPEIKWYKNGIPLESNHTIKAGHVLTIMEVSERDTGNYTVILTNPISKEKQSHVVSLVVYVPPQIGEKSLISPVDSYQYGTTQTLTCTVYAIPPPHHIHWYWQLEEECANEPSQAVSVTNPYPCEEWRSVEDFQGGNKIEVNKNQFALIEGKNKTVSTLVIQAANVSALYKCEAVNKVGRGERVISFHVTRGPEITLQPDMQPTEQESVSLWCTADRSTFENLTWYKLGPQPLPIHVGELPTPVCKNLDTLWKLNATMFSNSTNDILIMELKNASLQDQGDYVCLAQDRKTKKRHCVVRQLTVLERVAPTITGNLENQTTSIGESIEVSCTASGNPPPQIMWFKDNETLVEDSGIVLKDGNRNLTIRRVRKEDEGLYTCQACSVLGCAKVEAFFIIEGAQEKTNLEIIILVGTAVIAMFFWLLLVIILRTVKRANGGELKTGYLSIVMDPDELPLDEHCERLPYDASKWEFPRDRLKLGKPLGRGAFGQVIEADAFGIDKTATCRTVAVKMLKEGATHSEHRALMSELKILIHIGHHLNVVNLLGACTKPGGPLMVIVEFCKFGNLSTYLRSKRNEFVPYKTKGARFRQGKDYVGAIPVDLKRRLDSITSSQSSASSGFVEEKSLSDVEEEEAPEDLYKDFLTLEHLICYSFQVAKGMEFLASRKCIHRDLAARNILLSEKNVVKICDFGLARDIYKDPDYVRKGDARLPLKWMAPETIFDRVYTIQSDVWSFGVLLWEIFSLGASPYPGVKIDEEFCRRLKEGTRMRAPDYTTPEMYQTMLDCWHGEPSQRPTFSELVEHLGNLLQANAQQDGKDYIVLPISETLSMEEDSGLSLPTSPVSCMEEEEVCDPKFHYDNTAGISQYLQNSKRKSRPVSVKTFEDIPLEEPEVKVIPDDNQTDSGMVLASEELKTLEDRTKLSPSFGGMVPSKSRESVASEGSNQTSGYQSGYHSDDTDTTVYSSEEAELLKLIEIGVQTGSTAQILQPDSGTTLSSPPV

Compound | IC50 [nM]
CN(c1ccc(NC(=N)Nc2ccccc2)cc1)c1ccnc(Nc2cccc(CS(C)(=O)=O)c2)n1 [1-{4-[(2-{[3-(methanesulfonylmethyl)phenyl]amino}pyrimidin-4-yl)(methyl)amino]phenyl}benzeneguanidine] | 324
CN(c1ccc(NS(=O)(=O)Cc2ccccc2)cc1)c1ccnc(Nc2cccc(CS(C)(=O)=O)c2)n1 [N-{4-[(2-{[3-(methanesulfonylmethyl)phenyl]amino}pyrimidin-4-yl)(methyl)amino]phenyl}-1-phenylmethanesulfonamide] | 269
CN(c1ccc(NC(=O)Oc2ccccc2)cc1)c1ccnc(Nc2cccc(CS(C)(=O)=O)c2)n1 [phenyl N-{4-[(2-{[3-(methanesulfonylmethyl)phenyl]amino}pyrimidin-4-yl)(methyl)amino]phenyl}carbamate] | 95

The remaining molecules from weak to strong by IC50, led by results:

IC50 [nM] | Compound
176 | CN(c1ccc(NC(=O)Cc2ccccc2)cc1)c1ccnc(Nc2cccc(CS(C)(=O)=O)c2)n1 [N-{4-[(2-{[3-(methanesulfonylmethyl)phenyl]amino}pyrimidin-4-yl)(methyl)amino]phenyl}-2-phenylacetamide]
117 | CN(c1ccc(NC(=S)Nc2ccccc2)cc1)c1ccnc(Nc2cccc(CS(C)(=O)=O)c2)n1 [3-{4-[(2-{[3-(methanesulfonylmethyl)phenyl]amino}pyrimidin-4-yl)(methyl)amino]phenyl}-1-phenylthiourea]
18 | CN(c1ccc(NC(=O)Nc2ccccc2)cc1)c1ccnc(Nc2cccc(CS(C)(=O)=O)c2)n1 [3-{4-[(2-{[3-(methanesulfonylmethyl)phenyl]amino}pyrimidin-4-yl)(methyl)amino]phenyl}-1-phenylurea]
5 | CN(c1ccc(NC(=O)Nc2ccccc2)cc1)c1ccnc(Nc2cccc(S(N)(=O)=O)c2)n1 [3-{4-[methyl({2-[(3-sulfamoylphenyl)amino]pyrimidin-4-yl})amino]phenyl}-1-phenylurea]
